Assay results published in paper PMC8445441, “Elucidating the mechanism by which synthetic helper peptides sensitize Pseudomonas aeruginosa to multiple antibiotics” (PLoS Pathogens, 2021).
No end group written: not given here.

Test system: P. aeruginosa PAO1
Assay: microbe, parasite or virus in culture
Details: for MICa: the MIC of antibiotics: antibiotic alone
Protocol: The MIC tests were performed in triplicate using broth microdilution in accordance with Clinical and Laboratory Standards Institute (CLSI) recommendations (http://iacld.ir/DL/public/CLSI-2018-M100-S28.pdf). Briefly, drugs were two-fold diluted in MHB and mixed with an equal volume of bacterial suspensions containing approximately 1 × 10^6 CFU/mL in 96-well microliter plate. After 18 h incubation at 37 °C, the MIC values were defined as the lowest concentrations of antibiotics with no visible growth of bacteria. […] Otherwise, 1/4 MIC of the peptide was used in the combination. […] If needed, membrane compounds PG, PE, PC, CL or LPS, or membrane stabilizers MgCl2 or CaCl2, or efflux pumps inhibitor PAβN were added to the broth medium to clarify the effect of other substances on the synergy between peptide and antibiotics. All the tests were performed in triplicate.
The fractional inhibitory concentration (FIC) indices were calculated using the previously described formula FICI = FICa + FICb = MICac/MICa + MICbc/MICb. The FICI was interpreted according to EUCAST [65] as follows: synergistic, FICI≤0.5; additive, 0.5<FICI≤1; indifferent, 1<FICI<2; antagonistic, FICI ≥2. For the FICI calculations, twice the highest concentration tested was used in the cases where the MIC was not reached.

[1] = PAO1, peptide + azithromycin, twice the highest concentration used where MIC not reached
[2] = peptide alone, PAO1, broth microdilution in MHB, 18 h, 37 °C, triplicate
[3] = S3 Table, PAO1, antibiotic + 2 μM D-11
[4] = S3 Table, PAO1, antibiotic + 4 μM D-11

Compound | MICb: the MIC of the peptide (PAO1, 18 h) [µM] | FICI [1] | MICb: the MIC of the peptide [2] [µM] | further results
KHVGKALKGLK [ADP-1b] | > 32 | – | – | –
KIAKVALKALK [PEP10] | – | 1.125 | > 32 | –
GNNRPVYIPQPRPPHPRL [Api1b] | – | 1.125 | > 32 | –
RIVQWIKKWLR-NH2 [Peptide L-11-R5W] | – | 1.250 | 4 | –
N=C(N)c1ccc(OCCCCCOc2ccc(C(=N)N)cc2)cc1 [Pentamidine] | – | – | – | FICI [3]: 1.063; FICI [4]: 1.125; MICac: the MIC for the antibiotic in the combination (S3 Table, PAO1, with 2 μM D-11): 128/128 μM; MICac: the MIC for the antibiotic in the combination (S3 Table, PAO1, with 4 μM D-11): 128/128 μM; MICa: the MIC of antibiotics (S3 Table, PAO1): 128/128 μM
RRLFRRILRWL-NH2 [RW-BP100] | – | 1.250 | 8 | –
VDKPPYLPRPRPPRRIYNR-NH2 [Oncocin] | – | 1.125 | > 32 | –
LKGLKGLLKGLGEC [ADP-1a] | > 32 | – | – | –
Cc1onc(-c2ccccc2)c1C(=O)N[C@@H]1C(=O)N2[C@@H]1SC(C)(C)[C@@H]2C(=O)O [Oxacillin] | – | – | – | FICI [3]: 1.063; FICI [4]: 1.125
Cc1ncc([N+](=O)[O-])n1CCO [Metronidazole] | – | – | – | FICI [3]: 1.063; FICI [4]: 1.125
LKGLKGLLKGL [ADP-1c] | > 32 | – | – | –
NGVQPKYK [PEP9] | > 32 | – | – | –
CCO/N=C(\C(=O)N[C@@H]1C(=O)N2C(C(=O)[O-])=C(Sc3nc(-c4cc[n+](C)cc4)cs3)CS[C@H]12)c1nsc(N)n1 [Ceftaroline] | – | – | – | FICI [3]: 1.063; FICI [4]: 1.125; MICac: the MIC for the antibiotic in the combination (S3 Table, PAO1, with 2 μM D-11): 128/128 μM; MICac: the MIC for the antibiotic in the combination (S3 Table, PAO1, with 4 μM D-11): 128/128 μM; MICa: the MIC of antibiotics (S3 Table, PAO1): 128/128 μM
RIVQRIKKWLR-NH2 [Peptide L-11] | 32 | – | – | MIC of the peptide (PAO1, 18 h): ≥ 32 µM
